Patent US20250302933A1, “ATTENUATED YET IMMUNOGENICALLY POTENTIATED TUMOR EXTRACELLULAR VESICLE COMPOSITIONS AND USES THEREOF” (KOREA INSTITUTE OF SCIENCE AND TECHNOLOGY, priority 2024, published 2025)

Columns and labels:
[1] = molecular target: T1, YAP (Mus musculus, UniProt P46938); experiment: Western blotting of YAP after verteporfin treatment; assay type: cell-based; details: verteporfin 24 hours
T1 construct: endogenous in cells; host or cells: E.G7-OVA, MOC2 and 4T1 mouse cancer cells
Experimental: (§1) Protein concentrations of the samples were quantified using a DCTM protein assay kit (5000111, Bio-Rad, Hercules, CA, USA). The samples were dissolved using radioimmunoprecipitation buffer (9806S; Cell Signaling Technology, Danvers, MA, USA) and subjected to SDS-PAGE. The samples were loaded onto a sodium dodecyl sulfate polyacrylamide gel, separated by gel electrophoresis, and transferred to a nitrocellulose membrane. The membrane was blocked with 5% skim milk and incubated overnight at 4° C. with primary antibodies against the following: Tsg101 (sc-22774; Santa Cruz, Dallas, TX, USA), YAP (sc99010), CD81 (sc-166029), ALIX (sc-53540), calnexin (ab22595; Abcam, Cambridge, United Kingdom), OVA (0220-1682; Bio-Rad), HMGB1 (ab18256; Abcam), HSP70 (ab181606; Abcam), or B-actin (4967S; Cell Signaling Technology). After washing five times (5 min each) with Tris-buffered saline containing 0.05% Tween-20 (TBS/T), the membrane was incubated with anti-mouse peroxidase (1:3000; A4416; Sigma-Aldrich) or anti-rabbit peroxidase (1:3000; A0545) secondary antibody at 20 to 25° C. for 1 hour. The membrane was then incubated with an ECL substrate (1705061, Bio-Rad) and visualized using a ChemiDoc™ Touch Imaging System (Bio-Rad).
In addition, the migration ability of TEV-stimulated tumor cells was evaluated using a transwell migration assay. […] E.G7-OVA cells were also evaluated using the same protocol, but due to non-adherent characteristics, invasive cells were counted in the lower wells of a transwell chamber rather than on a membrane (FIGS. 18 and 19). […] Due to the aggressive and metastatic characteristics of 4T1 cells, a matrigel coating was added to the transwell membrane for the invasion assay. […] Finally, to confirm the attenuation of the tumor-promoting properties of AI-TEV in vivo, the efficacy as a therapeutic vaccine was evaluated in a mouse model. The therapeutic vaccine was another well-studied form of tumor vaccine designed to suppress tumor growth and induce long-term antitumor memory.

[2] = system: MOC2 cells; experiment: Cell viability assay (CCK-8) with verteporfin; assay type: cell-based, mouse; details: 24 hours
Experimental: (§2) Cells were seeded in a 96-well plate (30096; SPL Life Sciences, Pochon, South Korea) (5,000 cells/well) and treated with various doses of verteporfin in a serum-free medium for 24 hours. Cell viability was measured using Cell counting kit-8 (CCK-8) assay (CK04; Dojindo, Kumamoto, Japan), and the absorbance was measured at 450 nm using a microplate reader (SpectraMAX 340; Molecular Devices, San Jose, CA, USA).
(§3) To determine appropriate conditions for AI-TEV production, three types of cancer cells were treated with various doses of verteporfin in a serum-free medium and cell viability was assessed. E.G7-OVA cells were a derivative of EL4 mouse lymphoma cells carrying a complete copy of chicken ovalbumin (OVA) mRNA. Mouse oral cancer 2 (MOC2) cells represented an aggressive form of mouse oral squamous cell carcinoma, while 4T1 cells were triple-negative, highly invasive malignant mouse breast cancer cells. The lowest dose of verteporfin that induced effective cell death was 20 ng/ml for E.G7-OVA cells and 200 ng/ml for MOC2 and 4T1 cells and cell viability was approximately 80% for all cell types (FIGS. 2 and 3). The immunogenicity of the cell death was verified based on an increase in DAMPs after verteporfin treatment. […] Tumor cells were cultured in a serum-free medium for 24 hours with or without verteporfin to prepare AI-TEV or control TEV (C-TEV), respectively. […] TEVs expressed several EV markers such as tumor susceptibility genes 101 (TSG101), CD81, and Alix, but had no negative marker calnexin (FIGS. 12 and 13). Since verteporfin inhibited both autophagy and YAP, it was expected that there was a significant difference in a proteomic cargo between C-TEV and AI-TEV.

[3] = system: 4T1 cells; experiment: Cell viability assay (CCK-8) with verteporfin; assay type: cell-based, mouse; details: 24 hours
Experimental: as §2, §3

[4] = system: E.G7-OVA cells; experiment: Cell viability assay (CCK-8) with verteporfin; assay type: cell-based, mouse; details: 24 hours
Experimental: as §2, §3

[5] = system: cancer cells; experiment: Immunogenic cell death markers: calreticulin flow cytometry, HSP70/HMGB1 release Western blotting; assay type: cell-based, mouse
Experimental: as §1
Cells were seeded in a 6-well plate (30006; SPL Life Sciences, 5×10^5 cells/well) and treated with verteporfin in a serum-free medium for 3 hours. The cells were fixed with 0.25% paraformaldehyde for 5 minutes at 4° C. and then blocked with 3% bovine serum albumin for 15 minutes at 4° C. A calreticulin antibody (ab2907; Abcam) was added to the samples and incubated at 4° C. for 45 minutes. […] Calreticulin expression on the cell membrane was evaluated using flow cytometry gating of PI-negative cells.
To determine appropriate conditions for AI-TEV production, three types of cancer cells were treated with various doses of verteporfin in a serum-free medium and cell viability was assessed. […]

[6] = conditioned medium, 24 hours after verteporfin treatment

T1 sequence (P46938 whole entry): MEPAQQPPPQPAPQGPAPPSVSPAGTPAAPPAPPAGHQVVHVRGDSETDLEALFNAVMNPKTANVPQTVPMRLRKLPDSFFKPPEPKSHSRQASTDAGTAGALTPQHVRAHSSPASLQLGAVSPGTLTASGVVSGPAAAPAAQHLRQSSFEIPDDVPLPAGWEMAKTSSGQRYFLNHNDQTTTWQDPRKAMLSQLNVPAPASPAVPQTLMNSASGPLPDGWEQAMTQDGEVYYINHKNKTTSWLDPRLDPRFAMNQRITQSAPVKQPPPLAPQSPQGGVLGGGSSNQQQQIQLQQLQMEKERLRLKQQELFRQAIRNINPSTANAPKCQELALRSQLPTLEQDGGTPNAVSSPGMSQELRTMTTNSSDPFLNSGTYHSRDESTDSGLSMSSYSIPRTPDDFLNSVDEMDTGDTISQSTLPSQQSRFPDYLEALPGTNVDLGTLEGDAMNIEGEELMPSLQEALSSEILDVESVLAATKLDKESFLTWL

YAP protein ([1]; 4T1 cells): YAP inhibition
YAP protein content ([1]; E.G7-OVA cells): decreased
YAP protein content ([1]; MOC2 cells): decreased
Substance: Verteporfin
cell viability ([2]; 200 ng/ml verteporfin): approximately 80%
lowest dose of verteporfin that induced effective cell death ([2]; serum-free medium): 200 ng/mL
cell viability ([3]; 200 ng/ml verteporfin): approximately 80%
lowest dose of verteporfin that induced effective cell death ([3]; serum-free medium): 200 ng/mL
cell viability ([4]; 20 ng/ml verteporfin): approximately 80%
lowest dose of verteporfin that induced effective cell death ([4]; serum-free medium): 20 ng/mL
calreticulin expression ([5]; cancer cells after verteporfin treatment, cell surface): dose-dependent increase
release of heat shock protein 70 (HSP70) [5, 6]: dose-dependent increase
release of high mobility group box 1 (HMGB1) [5, 6]: dose-dependent increase
